Data as given in patent US20240408130A1, “Combination of Silicon and Magnesium for the Prevention and Treatment of Muscle Cramps” (Bio Minerals NV, priority 2019, published 2024).
Where “and” joins values, the source holds several entries; their conditions need not be identical. Identical values can stand only once. Counter-ions that a name gives are not always drawn.

Experiments:
muscle cramps [1] = conditions: cited from earlier work
muscle cramps [2] = test: Case reports of patients with muscle cramps given magnesium alone or Biosil plus Promagnor (Examples 1-7); type: in vivo, human; conditions: patient, recurrent skeletal muscle cramps for 23 years; magnesium salt alone, 450 mg per day
From the text: A patient had recurrent muscle cramps during a period of 23 years. Muscle cramps occurred in skeletal muscles in hands, lower arms and legs, as well as in intercostal muscles. […] Muscle cramps occurred during the day as well as during the night, at a frequency of several cramps per day. As a consequence, the muscle cramps prohibited working as a doctor and further prohibited swimming or any other sport. […] This ineffective result is consistent with the conclusions of Garrison (supra) and Young (supra), that magnesium supplementation is not effective in the treatment of muscle cramps.
The patient thereafter switched to a therapy comprising on a daily basis 10 mg stabilized silicic acid, wherein the silicic acid was in the form of orthosilicic acid and/or oligomers. The stabilizer was choline, which was administered at a daily dose of 200 mg. This combination is sold as Biosil® and is commercially available from Bio Minerals N.V., Destelbergen, Belgium. Use was made of the solid form of Biosil®. Two capsules per day were administered. The magnesium dose was 450 mg, and was in the form of magnesium phosphate, magnesium citrate, or magnesium bicarbonate. It was a dosage form of magnesium commercially supplied as Promagnor™ by Merck Consumer Healthcare nv, Overijse, Belgium. […]

muscle cramps [3] = test: Cross-over trial in patients with frequent muscle cramps, cramp frequency recorded daily in a diary (Example 8); type: in vivo, human
Protocol: Female and male patients (age 33 to 86 years) experiencing frequent muscle cramps participated in a cross-over trial. The design of the cross-over trial is as follows: • Period 1:2 weeks orally 400 mg Mg/day (magnesium citrate), • Period 2:2 weeks orally 400 mg Mg/day+10 mg Si/day (magnesium citrate and choline-stabilized orthosilicic acid), • Period 3:2 weeks orally 200 mg Mg/day+5 mg Si/day (magnesium citrate and choline-stabilized orthosilicic acid). • Parameters: patients recorded the frequency of cramps daily in a diary.

muscle cramps [4] = test: Comparative trial in 11 patients with frequent muscle cramps, cramp frequency recorded daily in a diary (Example 9); type: in vivo, human
Protocol: Seven female and 4 male patients (age 27 to 86 years, mean age 56 years) experiencing frequent muscle cramps participated in a comparative trial with the following design: • Period 1: During 1 week 11 patients either • (a) continued with their oral magnesium supplement (6 patients), or • (b) changed from their oral magnesium treatment (2 patients) to an oral magnesium supplement of 180 mg Mg/day (magnesium malate), or • (c) changed from “no magnesium” pretreatment (3 patients) to an oral magnesium supplement of 180 mg Mg/day (magnesium malate). • One patient had taken quinine sulfate prior to period 1. • Period 2: all patients (n=11) took 4 weeks 360 mg Mg/day (magnesium malate)+10 mg Si/day (choline-stabilized orthosilicic acid, ch-OSA®) • Parameters: patients recorded daily the frequency of cramps in a diary.

COc1ccc([C@@H]2Sc3ccccc3N(CCN(C)C)C(=O)[C@@H]2OC(C)=O)cc1 [diltiazem hydrochloride]
effect on intensity of cramps (muscle cramps [1]; Class II study): no effect on the intensity of cramps

[Mg] [magnesium]
effect on recurrent muscle cramps (muscle cramps [2]): not effective and did not provide any relief or inhibition of the muscle cramps
conclusion on frequency of cramps (muscle cramps [3]; magnesium alone versus combination with bioavailable silicon supplement, Example 8): not effective in reducing the frequency of cramps compared to the combination
Number of cramps Mean ± SE (muscle cramps [4]; Week 1: own oral magnesium supplement or 180 mg Mg/day (magnesium malate), n=11): 18.9 ± 7.4^
conclusion on relief of muscle cramps (muscle cramps [4]; monotherapy of oral magnesium, Example 9): not effective in relieving muscle cramps
cramp prophylaxis (muscle cramps [1]; Garrison 2012 Cochrane review of seven trials, older adults with skeletal muscle cramps): unlikely that magnesium supplementation provides a clinically meaningful cramp prophylaxis to older adults
effect on leg cramps in pregnancy (muscle cramps [1]; Leal de Araújo 2020, oral magnesium supplementation during pregnancy): did not reduce the occurrence and frequency of episodes of leg cramps

NCC1(CC(=O)O)CCCCC1 [Gabapentin]
effect on symptom scores (muscle cramps [1]; Class I clinical study, versus placebo): no difference was found between treatment and placebo with respect to any symptom score

CCN(CC)CCOC(=O)C(Cc1cccc2ccccc12)CC1CCCO1 (stereo not drawn) [naftidrofuryl oxalate]
effect on cramps and sleep disturbance (muscle cramps [1]; literature study): no effect on the mean number of cramps, number of nights with cramps or sleep disturbance

O=S(=O)([O-])[O-].[Mg+2] [magnesium sulphate]
effect on number of cramps, severity, duration, sleep disturbance (muscle cramps [1]; Class II study, 300 mg dose, versus placebo): not superior to placebo for number of cramps, severity, duration or sleep disturbance

C=C[C@H]1C[N@@]2CC[C@H]1C[C@H]2[C@H](O)c1ccnc2ccc(OC)cc12 [quinine]
side effects (muscle cramps [1]; reported in the literature (Katzberg 2010; FDA alert 2012)): common and serious side effects
effect on idiopathic leg cramps (muscle cramps [1]; systematic reviews and randomized clinical trials (Young 2015), versus placebo): may reduce the frequency of idiopathic leg cramps at night compared to placebo

magnesium citrate [Mg]
cramps/day, individual patients (muscle cramps [3]; A: 2 weeks 400 mg Mg/day orally (magnesium citrate), patients 1-6, one value per patient): 0.43 cramps/day (2×) and 1.07 cramps/day and 0.36 cramps/day and 1.79 cramps/day and 0.5 cramps/day
cramps/day, Mean (muscle cramps [3]; A: 2 weeks 400 mg Mg/day orally, mean of 6 patients): 0.76 cramps/day
effect on number of cramps (muscle cramps [1]; Class II study, 900 mg): could not conclude that there was a significant improvement in the number of cramps
